Source: patent publication US8475851B2, “Preparations with wood extracts of locust trees” (Symrise AG, priority 2011, dated 2013)

System: 3T3-L1 cells
Assay: Adipogenesis assay
Type: cell-based, mouse
Details: for Adipogenesis inhibition, result in words: concentration tested
Procedure: 3T3-L1 cells (mouse embryonic fibroblast-like adipocyte cell line) are seeded in a 48-well plate with collagen I coating at a concentration of 3×10^4 cells/well. After culture for 72 h at 37° C. and 5% CO2 in DMEM (Dulbecco's Modified Eagle's Medium), enriched with 10% calf serum, various concentrations of the test samples are added to DMEM, enriched with 10% fetal calf serum supplemented with 1 μg/ml insulin, 0.25 μM dexamethasone and 0.5 mM IBMX (3-isobutyl-1-methylxanthine), and incubated for a further 48 h. The medium is changed, applying DMEM, enriched with 10% fetal calf serum supplemented with 1 μg/ml insulin. After further cultivation for 48 h, the medium is changed again, applying DMEM enriched with 10% fetal calf serum.
After incubation for a further 72 h, the intracellularly stored lipids are quantified as a measure for the differentiation of the cells, by measuring the fluorescence after staining the lipids with the fluorescent dye Nile Red.
The inhibition of adipogenesis in the presence of the test samples is calculated from the following equation:
[formula] with RFU test substance=relative fluorescence units of the wells with test substance and with cells RFU control=relative fluorescence units of the wells without test substance, but with cells RFU control without cells=relative fluorescence units of the wells without test substance and without cells.
IC50 is calculated from the adipogenesis inhibition [%] in a series of dilutions of samples tested. This is the concentration at which adipogenesis is inhibited 50%.

Row | SMILES | Adipogenesis inhibition, result in words | Adipogenesis inhibition (test concentration 0.0003 % (corresponds to content 1.0 wt. % in BIO781/2)) | Adipogenesis inhibition (test concentration 0.0005 % (corresponds to content 1.5 wt. % in BIO781/2))
1 | O=c1c(O)c(-c2ccc(O)c(O)c2)oc2cc(O)ccc12 [Fisetin, 3,3′,4′,7-tetrahydroxyflavone] | do not show any activity | No inhibition | –
2 | O=C1c2ccc(O)cc2OC(c2ccc(O)c(O)c2)C1O (stereo not shown) [Fustin, 3,3′,4′,7-tetrahydroxyflavanone] | do not show any activity | – | No inhibition
